Data taken from patent US6841089B2, “Detoxification of onium compounds” (Baker Hughes Incorporated, priority 2001, dated 2005).

Experiments:
Assay type in all cases: physicochemical
[1] = Quat removal from brine: additive, then heptane extraction, water layer analyzed for quat (Examples 1-4); settings: brine of 97.50 g water and 2.50 μg sodium chloride dosed with 1.52 g methanolic quat solution; 90 ml sample; 1.00 g DDBSA or 0.90 g oleic acid; shaken 1 minute with 10 ml heptane; centrifuged
Protocol: A brine solution comprising 97.50 g of water and […] of sodium chloride was dosed with 1.52 g of a methanolic solution of a quat (solution contains 33% methanol and 67% RE 4136 quaternary ammonium compound available from Baker Petrolite). A 90 ml sample of the water, sodium chloride, quat solution was shaken by hand for 1 minute with 10 ml of heptane. The mixture is centrifuged to separate the layers and the water layer was analyzed for quat. The above test was repeated but in this case the sample was dosed with 1.00 g of dodecylbenzenesulfonic acid (DDBSA) or 0.90 g of oleic acid (as indicated) before the addition of heptane and shaken by hand. These two cases required prolonged centrifugation to separate the phases. Again, the water phase was analyzed for quat. The quat concentration is expressed in ppm of methanolic quat solution.

[2] = Quat removal from 16% sodium chloride brine suspension (Examples 7-8); settings: brine of 84 g water and 16 g sodium chloride with 1.52 g quat solution, used as suspension; 90 ml; 0.45 g p-TSA or 0.74 g naphthenic acids
Protocol: In a third set of tests, a brine solution comprising 84 g of water and 16 g of sodium chloride was dosed with 1.52 g of the above quat solution. In this case, the quat separates to some extent from the brine on standing and was used immediately in the next step as a suspension. A 90 ml sample of this suspension was dosed with 0.45 g of p-TSA or 0.74 g of a mixture of naphthenic acids (as indicated). The samples were treated as above and analyzed for quat.

[3] = Quat removal from brine: additive without heptane, oil layer separated, water layer washed with heptane (Examples 5-6); settings: same brine/quat solution, 90 ml; 0.45 g p-TSA or 0.74 g naphthenic acids; shaken 1 minute without heptane; water layer washed with 10 ml heptane
Protocol: In a second set of tests, a 90 ml sample of the above water, sodium chloride and quat solution was dosed with 0.45 g of para-toluenesulfonic acid (p-TSA) or 0.74 g of a mixture of naphthenic acids (as indicated). In this test, the mixture was shaken 1 minute by hand in the absence of heptane. The samples were centrifuged. An oil layer separated and remained at the top of the samples. The slightly hazy water layer was removed. The water layer was washed with 10 ml of heptane and again centrifuged. The clear water layer was analyzed for quat.

Structure (SMILES) | ppm of methanolic quat solution in water [1] | ppm of methanolic quat solution in water [2] [ppm] | ppm of methanolic quat solution in water [3] [ppm]
CCCCCCCC/C=C\CCCCCCCC(=O)O [Oleic acid, oleic acid] | 121 ppm |  | 
Cc1ccc(S(=O)(=O)O)cc1 [p-TSA, para-toluenesulfonic acid] |  | 88 | 178
CCCCCCC [Heptane only, heptane] | 15,000 ppm |  | 
CCCCCCCCCCCCc1ccc(S(=O)(=O)O)cc1 [DDBSA, dodecylbenzenesulfonic acid] | 76 ppm |  | 
